Measured values published in the NIST ThermoML archive (doi:10.1021/acs.jced.6b00008).
Numbers after ± are expanded uncertainties.

Legend:
[1] = Molar enthalpy of transition or fusion; details: Crystal; DSC
[2] = Crystal; DTA

Molar enthalpy of transition or fusion [1]: 3.92 ± 0.335 kcal/mol
Normal melting temperature [2]: 160.96 ± 3.4 °C
SMILES: O=C(/C=C/c1ccc(O)c(O)c1)O[C@H](Cc1ccc(O)c(O)c1)C(=O)O [rosmarinic acid]
